Active and inactive are the calls of the source. The rule behind the calls is not given here.
System: Cortical neurone
Assay: Induction of neurite outgrowth in rat cortical neurons at 10 uM after 4 days

Compound	Activity
C[C@@H]1C[C@H](O)[C@@]23O[C@@]4(O)C[C@@]12CC(=O)OC[C@@]3(C)[C@H]4C (relative stereo)	inactive
CO[C@@]12C[C@]34CC(=O)O[C@]3(C[C@@H](O)[C@H]4C)[C@](C)(CO1)[C@@H]2C	inactive
C[C@@H]1C[C@H](O)[C@@]2(O)[C@]13CC(=O)O[C@H](C3)[C@@H](C)[C@@]2(C)CO	inactive
C[C@]12COC(=O)C[C@@]3(CC(=O)[C@]1(C)O)[C@]2(O)[C@@H](O)C[C@]3(C)O	inactive
C[C@@H]1[C@H](O)C[C@]23OC(=O)C[C@]12C[C@]1(O)OC[C@]3(C)[C@@H]1C	inactive
C[C@@H]1C[C@H](O)[C@@]2(O)[C@]13CC(=O)OC[C@@]2(C)[C@@](C)(O)C(=O)C3	inactive
C[C@]12COC(=O)C[C@@]3(CC(=O)[C@]1(C)O)[C@]2(O)CC[C@]3(C)O	inactive
C[C@@H]1[C@H]2C[C@]3(CC(=O)O2)C(=CC(=O)[C@@H]3C)[C@]1(C)CO (relative stereo)	inactive
C[C@@H]1C(=O)C[C@]23CC(=O)OC[C@]1(C)[C@@]2(O)[C@@H](O)C[C@]3(C)O	inactive
C[C@@H]1C[C@H](O)[C@@]2(O)[C@]13CC(=O)OC[C@@]2(C)[C@H](C)C(=O)C3	inactive
C[C@@H]1[C@H](O)[C@H](O)[C@@]2(O)[C@]13CC(=O)OC[C@@]2(C)[C@H](C)C(=O)C3	inactive
C[C@@H]1C(=O)C=C2[C@]13CC(=O)O[C@H](C3)[C@@H](C)[C@@]2(C)CO (relative stereo)	inactive
C[C@@H]1CC(=O)[C@@]2(O)[C@]13CC(=O)OC[C@@]2(C)[C@@](C)(O)C(=O)C3	inactive
